Test results reported in patent US20080221135A1, “COMBINATION THERAPY” (Bristol-Myers Squibb Company, priority 2005, published 2008).

Assays:
[1] = tested on: variety of tumor types, including NSCLC; conditions: cited from earlier work
NSCLC [2] = conditions: chemo-naive or pre-treated NSCLC; cited from earlier work
[3] = oral bioavailability in humans; conditions: human, in vivo, 45% coefficient of variation
tumor [4] = assay: preclinical anti-tumor activity; format: in vivo; conditions: oral Compound I versus I.V. paclitaxel
NSCLC [5] = assay: single-agent treatment of NSCLC patients; format: in vivo, humans; conditions: Compound I
tumor [6] = assay: Phase I data, Compound I single agent; format: in vivo, humans
[7] = oral bioavailability in dog; format: in vivo
[8] = oral bioavailability in rats; format: in vivo; conditions: rat

| bioavailability [3] | oral bioavailability [7] | oral bioavailability [8] | SMILES | anti-tumor activity in pre-clinical models [1] | activity in treatment of NSCLC (NSCLC [2]) | tolerability profile (NSCLC [2]) | preclinical anti-tumor activity (tumor [4]) | activity in treatment of pre-treated NSCLC (NSCLC [5]) | main toxicity (NSCLC [5]; pre-treated NSCLC) | anti-tumor activity (tumor [6]; continuous weekly schedule, doses of 120 mg/m^2 and higher) | tolerability (tumor [6]; doses of 120 and 200 mg/m^2) | dose limiting toxicities (tumor [6]; twice weekly schedule, doses of 60 mg/m^2 and higher, versus weekly schedule) |
| --- | --- | --- | --- | --- | --- | --- | --- | --- | --- | --- | --- | --- |
| – | – | – | Nc1nc2[nH]cc(CCc3ccc(C(=O)N[C@@H](CCC(=O)O)C(=O)O)cc3)c2c(=O)[nH]1 [Pemetrexed] | has shown anti-tumor activity | single-agent activity | acceptable tolerability profile | – | – | – | – | – | – |
| 24% | good oral bioavailability | good oral bioavailability | COC(=O)O[C@@]12CO[C@@H]1C[C@H](O)[C@@]1(C)C(=O)[C@H](OC(C)=O)C3=C(C)[C@@H](OC(=O)[C@H](O)[C@@H](NC(=O)OC(C)(C)C)C(C)(C)C)C[C@@](O)([C@@H](OC(=O)c4ccccc4)[C@H]21)C3(C)C [Compound I, 3′-tert-butyl-3′-N-tert-butyloxycarbonyl-4-deacetyl-3′-dephenyl-3′-N-debenzoyl-4-O-methoxycarbonyl-paclitaxel] | – | – | – | comparable to intravenous (I.V.) paclitaxel | promising early signs of activity | transient, manageable neuropathy | shows anti-tumor activity | acceptable | may reduce dose limiting toxicities |
